In patent US8435957B2, “Use of lignan compound for anti-wrinkle treatment” (Biocare Co., Ltd., priority 2007, dated 2013):

Key:
human normal fibroblasts = assay: MTT assay, cell proliferation effect in fibroblasts; assay type: cell-based; settings: 48 h serum-free culture, untreated medium as control
Method: In order to examine a cell proliferation effect proving the effect of reducing skin wrinkles, an MTT assay (3-(4,5-dimethylthiazol-2-yl)-2,5-diphenyl tetrazolium bromide reduction method) was carried out using fibroblasts.
First, human normal fibroblasts were plated into a 96-well plate at a concentration of 2×10^5 cells/well and primarily cultured in 10% FBS (fetal bovine serum)-containing DMEM medium in conditions of 37° C. and 5% CO2 for 24 hours. After the primary culture, the cells were treated with varying concentrations of the inventive sample. Then, the medium was replaced with a serum-free medium, and the cells were secondarily cultured for 48 hours. After the secondary culture step, 100 μl of MTT solution was added to the medium. Then, the resulting solution was left to stand for 4 hours, and then the medium was removed. 100 μl of dimethyl sulfoxide solution was added to each well and stirred for 20 minutes, and then the absorbance of each well at 540 nm was measured with a microplate reader.
According to the method of Example 2, the cell proliferation effects of 75% methanol extract of the aril of nutmeg and fragrin A and austobailignan 7 which are isolated and purified thereof were measured. In the MTT assay, a culture medium not treated with the sample was used as a control group and measured for absorbance, and the analysis results are shown in Table 3 below.

[1] = tested on: matrix metalloproteinase-1 (MMP-1); assay: Western blot of matrix metalloproteinase-1 (MMP-1) expression in fibroblasts radiated with UV light; assay type: cell-based, human; settings: for inhibition of expression of matrix metalloproteinase-1: UV 20 J/cm^2, given as 'higher than the negative control'; for expression of matrix metalloproteinase-1, result in words: 3, 5 and 10 μM, versus UV 20 J/cm^2 positive control, FIG. 3, FIG. 4; for inhibition at 3 µM / inhibition at 5 µM / inhibition at 10 µM: Homo sapiens, Fibroblast, light or radiation study, compared with UV 20 J/cm^2 treated positive control group, read-out: matrix metalloproteinase-1 (MMP-1) inhibitory activity effect
Method: Fibroblasts were cultured in a 60-mm dish at a concentration of 2×10^5 cells/ml to a confluence of about 85%. Before UV radiation, the medium was removed, and the cells were washed with PBS to remove a serum component therefrom, and then radiated with UV light at a dose of 20 J/cm^2. After the fibroblast cells were radiated with UV light, the cells were treated with each of the samples and cultured with serum free DMEM for 48 hours.
In order to measure the expression levels of matrix metalloproteinase-1 (MMP-1), Western blot was used, and the amount of total protein in the medium containing the fibroblasts cultured therein was quantified using the Bradford method.
The extracted protein was electrophoresed on 10% SDS-polyacrylamide gel, and then transferred to a nitrocellulose membrane. The membrane was blocked with 5% skim milk at room temperature for 1 hour in order to prevent it from being contaminated with other unknown proteins. Primary antibody to matrix metalloproteinase-1 was diluted in a blocking solution at a ratio of 1:1000 and allowed to react with the membrane at room temperature for 2 hours. After the primary antibody reaction, the membrane was washed three times with Tris-buffer saline Tween 20 (TBST) with shaking for 10 minutes each time. Secondary antibodies recognizing the primary antibodies to matrix metalloproteinase-1 was diluted in 5% skim milk at a ratio of 1:1000 and allowed to react with the membrane at room temperature for 1 hour. Then, the membrane was washed three times with tris-buffer saline Tween 20 with shaking for 10 minutes each time in the same manner as in the case of the primary antibody reaction, and then was developed by chemiluminescence.

[2] = tested on: hairless mouse (Skh; HR-1); assay: In vivo anti-wrinkle effect, skin application, skin replica; settings: applied to skin: 50 μl of 6% (w/v) nutmeg extract or 20 mM macelignan; versus UV positive group; FIG. 7
Method: (§1) 6-week hairless mouse (Skh; HR-1) have a quarantine period for 1 week before experiment, and cared maintaining temperature with 23±3° C., relative humidity with 50±5° C., and 12 hours of day/night cycle (07:00-19:00/day time). They were fed with feed for mouse, and tap water. UV irradiations were performed 3 times per week in the same time, the amount of the UV irradiations were 50 mJ/cm^2 on 1st week, 100 mJ/cm^2 on 2nd week, 200 mJ/cm^2 on 3rd week, and 250 mJ/cm^2 on 4th and after 4th weeks. The groups were divided into 4 groups. Those were control, UV control, UV/nutmeg and UV/macelignan.
50 μl of 6% (w/v) of nutmeg extract and 20 mM macelignan solution were applied for the experiment. For the experiment, nutmeg extract and macelignan were disolved in ethanol:polyethylene glycol (7:3, v/v).
In FIG. 7, A is the normal group, B is the UV irradiated group, C is the nutmeg applying group, and D is the macelignan applying group.

[3] = tested on: hairless mouse (Skh; HR-1); assay: In vivo anti-wrinkle effect, oral administration, skin replica; settings: oral: 200 mg/kg nutmeg or 20 mg/kg macelignan; versus UV positive group; FIG. 8
Method: as §1, with “UV/macelignan. 200 mg/kg of nutmeg and 20 mg/kg of macelignan were administered respectively by oral. For the experiment, nutmeg extract and macelignan were disolved in 0.25% CMC (carboxyl methyl celluose) solution.” for “UV/macelignan.”
In FIG. 8, A is the normal group, B is the UV irradiated group, C is the nutmeg administering group, and D is the macelignan administering group.

Structure (SMILES) | Proliferation effect (%) (human normal fibroblasts; 3 μg/ml) | Proliferation effect (%) (human normal fibroblasts; 5 μg/ml) | Proliferation effect (%) (human normal fibroblasts; 10 μg/ml) | inhibition of expression of matrix metalloproteinase-1 ([1]; 10 μM) [%] | expression of matrix metalloproteinase-1, result in words [1] | inhibition at 3 µM [1] [%] | inhibition at 5 µM [1] [%] | inhibition at 10 µM ([1]; 10 μM) [%] | effect on reducing wrinkle (skin replica), result in words [2] | effect on inhibiting wrinkle (skin replica), result in words [3] | inhibition of expression of matrix metalloproteinase-1 ([1]; 10 μg/ml) [%]
COc1cc([C@@H]2OC(c3ccc4c(c3)OCO4)[C@@H](C)[C@@H]2C)ccc1O (some centres unmarked) [austobailignan 7, austrobailignan-7] | 104 | 105 | 110 | 65 | inhibited the expression of matrix metalloproteinase-1 with dose-dependent manners | – | – | – | – | – | –
C=CCc1cc(OC)c(OC(C)Cc2ccc(O)c(OC)c2)c(OC)c1 (centres unmarked) [fragrin A, 2-(4-allyl-2,6-dimethoxyphenoxy)-1-(4-hydroxy-3-methoxyphenyl)-propane] | 101 | 104 | 108 | 65 | inhibited the expression of matrix metalloproteinase-1 with dose-dependent manners | – | – | – | – | – | –
C/C=C/c1cc(OC)c2c(c1)[C@@H](C)C(c1ccc3c(c1)OCO3)O2 (some centres unmarked) [licarin E] | – | – | – | – | – | 35 | 47 | 73 | – | – | –
COc1cc(C[C@H](C)[C@H](C)Cc2ccc3c(c2)OCO3)ccc1O [macelignan] | – | – | – | – | – | 31 | 42 | 63 | inhibited wrinkle | inhibited wrinkle | –
O=C1O[C@H]([C@@H](O)CO)C(O)=C1O [vitamin-C, reference compound] | – | – | – | 20 | – | – | – | – | – | – | 20
